What is called IC50 is the concentration that gives 50% inhibition. Lower therefore signals greater potency in that assay. What is called Inhibition is the share of the control response that was lost under treatment. A high value points to a strong effect.

The structures appear in SMILES notation.

IC50 and Inhibition data for 12 molecules are collected here from ChEMBL document CHEMBL1146729, “Rational design and synthesis of novel heparan sulfate mimetic compounds as antiadhesive agents” (Bioorg Med Chem Lett, 2004).

In test [1] the test system is HT-1080. Put plainly: Compound (100 uM) was tested for percent inhibition against adhesion of human HT1080 cells; No inhibition. It counts as functional, cell-based.
Test [2] deals with HeLa. Put plainly: Compound (100 uM) was tested for percent inhibition against adhesion of human HeLa cells; No inhibition. It counts as functional, cell-based.
The next test concerns the target T1, Collagenase ColA (Bacteria, UniProt P43153).
T1 sequence (P43153 whole entry): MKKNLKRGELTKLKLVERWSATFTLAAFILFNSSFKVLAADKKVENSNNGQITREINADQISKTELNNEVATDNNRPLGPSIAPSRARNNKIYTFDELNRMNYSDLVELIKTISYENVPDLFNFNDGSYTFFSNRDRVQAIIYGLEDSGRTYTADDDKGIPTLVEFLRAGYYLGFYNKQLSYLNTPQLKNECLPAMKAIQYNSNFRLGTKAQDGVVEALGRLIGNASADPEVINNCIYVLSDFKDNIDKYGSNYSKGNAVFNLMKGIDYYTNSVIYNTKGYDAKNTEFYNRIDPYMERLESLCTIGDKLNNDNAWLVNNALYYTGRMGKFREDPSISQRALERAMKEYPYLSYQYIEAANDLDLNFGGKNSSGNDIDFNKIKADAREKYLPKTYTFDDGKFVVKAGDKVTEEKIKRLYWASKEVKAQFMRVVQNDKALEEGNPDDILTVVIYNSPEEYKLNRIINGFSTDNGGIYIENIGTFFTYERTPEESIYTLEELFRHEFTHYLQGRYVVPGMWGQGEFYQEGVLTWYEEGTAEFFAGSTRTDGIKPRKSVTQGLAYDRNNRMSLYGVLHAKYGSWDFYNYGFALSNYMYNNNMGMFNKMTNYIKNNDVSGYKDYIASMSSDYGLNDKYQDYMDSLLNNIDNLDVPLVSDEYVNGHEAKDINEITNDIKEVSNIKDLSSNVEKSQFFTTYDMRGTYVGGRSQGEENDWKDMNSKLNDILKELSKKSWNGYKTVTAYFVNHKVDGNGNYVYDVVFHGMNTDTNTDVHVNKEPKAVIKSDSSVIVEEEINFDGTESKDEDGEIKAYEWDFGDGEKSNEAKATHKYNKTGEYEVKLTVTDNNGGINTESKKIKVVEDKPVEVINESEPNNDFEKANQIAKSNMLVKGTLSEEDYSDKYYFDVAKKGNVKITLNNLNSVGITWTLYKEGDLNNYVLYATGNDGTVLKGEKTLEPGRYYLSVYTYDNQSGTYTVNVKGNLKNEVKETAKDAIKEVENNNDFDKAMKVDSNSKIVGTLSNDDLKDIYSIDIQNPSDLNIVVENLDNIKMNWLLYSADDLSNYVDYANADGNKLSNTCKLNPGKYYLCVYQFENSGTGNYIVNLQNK
Put plainly: Inhibition of collagenase at 100 uM (No inhibition). Also noted: species or system Hathewaya histolytica.

The target in test [3] is 72 kDa type IV collagenase (Homo sapiens, UniProt P08253). Put plainly: Inhibition of matrix metalloprotease-2 at 100 uM (inactive).
A further test deals with Prothrombin (Homo sapiens, UniProt P00734). Put plainly: Compound (100 uM) was tested for inhibitory activity against thrombin; No inhibition.
Test [4] addresses T2, Heparanase (Homo sapiens, UniProt Q9Y251).
T2 sequence (Q9Y251 whole entry): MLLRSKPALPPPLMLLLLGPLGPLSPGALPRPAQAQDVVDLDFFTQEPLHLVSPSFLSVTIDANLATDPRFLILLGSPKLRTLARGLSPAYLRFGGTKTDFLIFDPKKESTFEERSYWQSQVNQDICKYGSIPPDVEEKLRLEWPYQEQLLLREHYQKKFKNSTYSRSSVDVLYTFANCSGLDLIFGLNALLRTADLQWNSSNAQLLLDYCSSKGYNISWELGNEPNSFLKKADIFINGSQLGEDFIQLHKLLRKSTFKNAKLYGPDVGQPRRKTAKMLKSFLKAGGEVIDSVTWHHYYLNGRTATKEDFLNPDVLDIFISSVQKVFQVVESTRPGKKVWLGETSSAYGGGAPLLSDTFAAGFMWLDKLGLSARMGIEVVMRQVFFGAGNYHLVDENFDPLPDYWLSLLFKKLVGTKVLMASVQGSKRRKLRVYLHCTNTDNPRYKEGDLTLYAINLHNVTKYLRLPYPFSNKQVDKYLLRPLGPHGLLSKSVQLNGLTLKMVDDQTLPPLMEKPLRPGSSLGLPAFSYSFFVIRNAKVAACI
Put plainly: Inhibitory concentration against heparanase; No inhibition.

Test [5] has as its target Matrix metalloproteinase-9 (Homo sapiens, UniProt P14780). Put plainly: Inhibition of matrix metalloprotease-9 at 100 uM (inactive).
The next test addresses Coagulation factor X (Homo sapiens, UniProt P00742). Description: Inhibition of Coagulation factor X at 100 uM; No inhibition.
The target in another test is Serine protease 1 (Homo sapiens, UniProt P07477). Description: Inhibitory activity against trypsin at 100 uM; No inhibition.
Test [6] has as its target T2, Heparanase. Put plainly: Compound was tested for inhibitory activity against heparanase.
In test [7] the target is T3, Integrin alpha-5/beta-1 (Homo sapiens, UniProt P05556+P08648). Description: Inhibition of human HT1080 cell adhesion to fibronectin. It counts as functional, cell-based, HT-1080.
For test [8], the system named is HT-1080. Put plainly: Compound was tested for inhibitory activity against invasion of human HT1080 cells. It counts as functional, cell-based.
The test system of test [9] is HT-1080. Put plainly: Compound (100 uM) was tested for percent inhibition against adhesion of human HT1080 cells. It counts as functional.
The subject of test [10] is HT-1080. Put plainly: Compound was tested for inhibitory activity against adhesion of human collagen IV/HT1080 cell. It counts as functional, cell-based.
Test [11] deals with T3, Integrin alpha-5/beta-1. Put plainly: Inhibition of human HeLa cell adhesion to fibronectin. It counts as functional, cell-based.
Test [12] relates to HT-1080. Put plainly: Compound was tested for inhibitory activity against adhesion of human Plastic/HT1080 cells. It counts as functional, cell-based.
The test system of test [13] is HeLa. Put plainly: Compound (100 uM) was tested for percent inhibition against adhesion of human HeLa cells. It counts as functional.
In test [14] the target is T3, Integrin alpha-5/beta-1. Put plainly: Inhibition of human A431 cell adhesion to fibronectin. It counts as functional, cell-based, A-431.
The subject of test [15] is HT-1080. Description: Compound was tested for inhibitory activity against growth of human HT1080 cells. It counts as functional, cell-based.
The subject of test [16] is HT-1080. Description: Compound was tested for inhibitory activity against adhesion of human laminin/HT1080 cells. It counts as functional, cell-based.
Test [17] has as its system HT-1080. Put plainly: Compound was tested for inhibitory activity against migration of human HT1080 cells. It counts as functional, cell-based.

Sequence of Coagulation factor X (P00742 41-179 limits assumed): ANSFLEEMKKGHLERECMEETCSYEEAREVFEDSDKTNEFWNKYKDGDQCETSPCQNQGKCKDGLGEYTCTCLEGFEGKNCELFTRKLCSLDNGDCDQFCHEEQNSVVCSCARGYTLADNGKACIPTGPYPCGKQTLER
Sequence of Coagulation factor X (P00742 235-488 limits assumed): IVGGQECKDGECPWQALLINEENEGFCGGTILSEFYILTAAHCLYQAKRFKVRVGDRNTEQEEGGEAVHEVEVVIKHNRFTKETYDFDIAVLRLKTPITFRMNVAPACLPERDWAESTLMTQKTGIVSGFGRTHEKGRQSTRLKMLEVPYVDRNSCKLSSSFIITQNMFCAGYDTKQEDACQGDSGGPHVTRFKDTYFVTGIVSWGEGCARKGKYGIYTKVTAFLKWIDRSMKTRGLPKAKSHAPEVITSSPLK
T3 sequence (P05556 21-798 limits assumed): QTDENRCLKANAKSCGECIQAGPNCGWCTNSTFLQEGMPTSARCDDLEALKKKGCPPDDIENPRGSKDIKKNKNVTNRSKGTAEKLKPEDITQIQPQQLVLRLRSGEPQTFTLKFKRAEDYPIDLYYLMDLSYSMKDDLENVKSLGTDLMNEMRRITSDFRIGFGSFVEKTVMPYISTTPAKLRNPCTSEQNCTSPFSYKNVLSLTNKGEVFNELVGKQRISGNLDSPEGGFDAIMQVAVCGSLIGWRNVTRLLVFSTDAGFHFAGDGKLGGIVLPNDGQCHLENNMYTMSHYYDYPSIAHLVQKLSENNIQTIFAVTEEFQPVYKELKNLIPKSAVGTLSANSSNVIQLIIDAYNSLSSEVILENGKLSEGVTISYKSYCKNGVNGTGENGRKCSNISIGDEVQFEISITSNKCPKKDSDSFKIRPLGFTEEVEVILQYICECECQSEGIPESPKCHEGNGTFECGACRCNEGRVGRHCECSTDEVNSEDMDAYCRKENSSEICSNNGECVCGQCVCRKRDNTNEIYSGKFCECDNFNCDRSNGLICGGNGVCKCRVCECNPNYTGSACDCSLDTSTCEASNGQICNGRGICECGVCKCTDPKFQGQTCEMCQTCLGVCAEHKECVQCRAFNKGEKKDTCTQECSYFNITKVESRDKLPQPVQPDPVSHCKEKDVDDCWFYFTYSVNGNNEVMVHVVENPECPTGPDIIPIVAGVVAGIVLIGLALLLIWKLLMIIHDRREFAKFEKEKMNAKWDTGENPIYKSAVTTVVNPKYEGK
T3 sequence (P08648 42-894 limits assumed): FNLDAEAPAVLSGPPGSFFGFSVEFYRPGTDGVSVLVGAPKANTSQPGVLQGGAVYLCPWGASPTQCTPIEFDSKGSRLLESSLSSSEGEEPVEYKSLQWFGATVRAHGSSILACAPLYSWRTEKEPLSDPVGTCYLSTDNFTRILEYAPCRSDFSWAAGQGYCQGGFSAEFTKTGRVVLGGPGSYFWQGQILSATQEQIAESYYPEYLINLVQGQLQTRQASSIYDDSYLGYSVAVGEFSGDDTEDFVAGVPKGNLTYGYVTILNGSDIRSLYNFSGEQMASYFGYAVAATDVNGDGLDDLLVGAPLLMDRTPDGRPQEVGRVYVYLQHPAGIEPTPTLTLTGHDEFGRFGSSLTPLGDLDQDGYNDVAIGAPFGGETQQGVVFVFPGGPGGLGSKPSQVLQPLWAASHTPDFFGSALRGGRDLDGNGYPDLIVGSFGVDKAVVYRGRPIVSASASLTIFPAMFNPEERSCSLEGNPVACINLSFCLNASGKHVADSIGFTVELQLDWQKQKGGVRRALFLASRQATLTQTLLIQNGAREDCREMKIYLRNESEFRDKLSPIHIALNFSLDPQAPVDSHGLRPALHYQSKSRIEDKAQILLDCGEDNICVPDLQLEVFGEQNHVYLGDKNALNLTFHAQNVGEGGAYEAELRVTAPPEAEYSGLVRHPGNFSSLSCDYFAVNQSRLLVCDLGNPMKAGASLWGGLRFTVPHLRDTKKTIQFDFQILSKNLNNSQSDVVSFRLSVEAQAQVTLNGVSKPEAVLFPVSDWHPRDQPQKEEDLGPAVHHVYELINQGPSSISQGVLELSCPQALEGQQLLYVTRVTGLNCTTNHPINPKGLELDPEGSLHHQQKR
T3 sequence (P08648 895-1049 limits assumed): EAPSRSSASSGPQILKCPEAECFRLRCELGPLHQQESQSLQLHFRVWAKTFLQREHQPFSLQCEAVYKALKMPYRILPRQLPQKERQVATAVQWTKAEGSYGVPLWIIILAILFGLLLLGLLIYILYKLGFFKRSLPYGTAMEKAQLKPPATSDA
Sequence of Serine protease 1 (P07477 whole entry): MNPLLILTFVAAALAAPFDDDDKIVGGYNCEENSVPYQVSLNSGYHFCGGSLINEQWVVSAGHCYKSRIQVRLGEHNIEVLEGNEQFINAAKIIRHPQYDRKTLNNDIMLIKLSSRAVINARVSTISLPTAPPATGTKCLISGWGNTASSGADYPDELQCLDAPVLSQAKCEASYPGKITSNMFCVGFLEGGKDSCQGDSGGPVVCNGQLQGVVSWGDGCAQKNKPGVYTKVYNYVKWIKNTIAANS
Sequence of 72 kDa type IV collagenase (P08253 whole entry): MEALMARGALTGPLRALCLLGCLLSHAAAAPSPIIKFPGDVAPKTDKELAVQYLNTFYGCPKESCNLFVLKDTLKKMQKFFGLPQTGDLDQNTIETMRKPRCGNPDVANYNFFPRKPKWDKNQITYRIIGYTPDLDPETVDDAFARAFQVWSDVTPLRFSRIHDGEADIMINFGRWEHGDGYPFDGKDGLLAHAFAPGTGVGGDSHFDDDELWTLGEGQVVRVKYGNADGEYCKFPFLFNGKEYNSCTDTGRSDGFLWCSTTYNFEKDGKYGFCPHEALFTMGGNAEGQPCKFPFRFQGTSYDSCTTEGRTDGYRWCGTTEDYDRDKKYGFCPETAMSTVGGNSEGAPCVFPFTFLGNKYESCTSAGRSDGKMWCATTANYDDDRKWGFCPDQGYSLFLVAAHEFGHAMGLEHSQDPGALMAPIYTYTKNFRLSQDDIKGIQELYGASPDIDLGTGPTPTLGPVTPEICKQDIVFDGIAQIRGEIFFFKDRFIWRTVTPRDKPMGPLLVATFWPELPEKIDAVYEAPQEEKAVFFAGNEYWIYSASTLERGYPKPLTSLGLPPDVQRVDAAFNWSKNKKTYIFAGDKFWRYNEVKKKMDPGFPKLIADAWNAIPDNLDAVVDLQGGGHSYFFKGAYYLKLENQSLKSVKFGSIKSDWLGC
Sequence of Matrix metalloproteinase-9 (P14780 whole entry): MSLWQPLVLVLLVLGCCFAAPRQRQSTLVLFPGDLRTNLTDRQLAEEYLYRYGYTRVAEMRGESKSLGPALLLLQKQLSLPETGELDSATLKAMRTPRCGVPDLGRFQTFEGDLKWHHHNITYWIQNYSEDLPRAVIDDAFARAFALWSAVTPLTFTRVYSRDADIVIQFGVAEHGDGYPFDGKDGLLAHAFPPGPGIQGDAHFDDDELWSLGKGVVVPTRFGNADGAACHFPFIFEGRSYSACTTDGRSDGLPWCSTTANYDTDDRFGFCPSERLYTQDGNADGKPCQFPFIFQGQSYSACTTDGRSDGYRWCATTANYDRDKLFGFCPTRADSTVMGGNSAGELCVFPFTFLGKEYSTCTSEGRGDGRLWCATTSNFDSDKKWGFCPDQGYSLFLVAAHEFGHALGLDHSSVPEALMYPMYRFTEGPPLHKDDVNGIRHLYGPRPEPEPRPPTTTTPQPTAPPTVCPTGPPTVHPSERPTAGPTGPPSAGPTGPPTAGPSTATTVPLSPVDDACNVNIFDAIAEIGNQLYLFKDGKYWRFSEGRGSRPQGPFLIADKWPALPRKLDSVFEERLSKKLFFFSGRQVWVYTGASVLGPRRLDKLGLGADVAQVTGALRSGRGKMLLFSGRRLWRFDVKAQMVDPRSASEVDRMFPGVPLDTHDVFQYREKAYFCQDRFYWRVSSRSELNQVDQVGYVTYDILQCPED

Consider `O=C(O)c1ccc(Sc2ccc(C(=O)c3ccccc3C(=O)O)cc2[N+](=O)[O-])cc1`, for which the IC50 result (in the test on HT-1080 [1]; in the test on HeLa [2]; at Collagenase ColA; in test [3]; on Prothrombin; against Heparanase [4]) was “Not Active” each time. For the same molecule, the 50% inhibitory concentration (IC50) entry (in test [5]; on Coagulation factor X; against Serine protease 1) was “Not Active” in each case.

For `O=C(O)c1ccccc1C(=O)c1ccc(F)c([N+](=O)[O-])c1`, the 50% inhibitory concentration (IC50) result (in the test on HT-1080 [1]; with HeLa [2]; against Collagenase ColA; in test [3]; against Prothrombin; on Heparanase [4]) was “Not Active” each time. Moreover, the half-maximal inhibitory concentration (IC50) result (in [5]; at Coagulation factor X; on Serine protease 1) was “Not Active” throughout.

As to `CCNc1ccc(C(=O)c2ccccc2C(=O)O)cc1[N+](=O)[O-]`, the 50% inhibitory concentration (IC50) entry (with HT-1080 [1]; in the test with HeLa [2]; against Collagenase ColA; in [3]; at Prothrombin; against Heparanase [4]) was “Not Active” throughout. For the same molecule, the IC50 result (in test [5]; against Coagulation factor X; against Serine protease 1) was “Not Active” each time.

With `CC(=O)OC(=O)c1ccccc1C(=O)c1ccc(Sc2ccccc2)c([N+](=O)[O-])c1`, the concentration for half-maximal inhibition (IC50) result (in the test with HT-1080 [1]; in the test with HeLa [2]; against Collagenase ColA; in [3]; against Prothrombin; at Heparanase [4]) was “Not Active” in each case. The IC50 entry (in [5]; at Coagulation factor X; against Serine protease 1) was “Not Active” in each case.

On to `O=C(O)c1ccccc1C(=O)c1ccc(Sc2ccccc2)c([N+](=O)[O-])c1`, for which the IC50 result with HT-1080 [1] was “Not Active”; with HeLa [2] it was “Not Active”; against Heparanase [6], 300 µM; at Collagenase ColA, “Not Active”; in test [3] it was “Not Active”; against Prothrombin it was “Not Active”. Further, the IC50 result (at Heparanase [4]; in test [5]; against Coagulation factor X; against Serine protease 1) was “Not Active” in each case.

For the molecule `O=C(O)c1ccccc1C(=O)c1ccc(F)cc1`, the IC50 result (in the test on HT-1080 [1]; in the test on HeLa [2]; at Collagenase ColA; in test [3]; against Prothrombin; on Heparanase [4]) was “Not Active” each time. In addition, the IC50 result (in test [5]; against Coagulation factor X; against Serine protease 1) was “Not Active” each time.

For `O=C(O)c1ccccc1C(=O)c1ccc(Oc2ccccc2)c([N+](=O)[O-])c1`, the 50% inhibitory concentration (IC50) entry (with HT-1080 [1]; in the test on HeLa [2]; at Collagenase ColA; in test [3]; against Prothrombin; on Heparanase [4]) was “Not Active” throughout. The IC50 entry (in [5]; against Coagulation factor X; at Serine protease 1) was “Not Active” throughout.

In the case of `CCSc1ccc(C(=O)c2ccccc2C(=O)O)cc1[N+](=O)[O-]`, the IC50 result (with HT-1080 [1]; in the test on HeLa [2]; against Collagenase ColA; in test [3]; at Prothrombin; against Heparanase [4]) was “Not Active” in each case. Besides, the IC50 result (in [5]; on Coagulation factor X; against Serine protease 1) was “Not Active” in each case.

As to `O=C(O)c1ccccc1C(=O)c1ccc(NC2CCCCC2)c([N+](=O)[O-])c1`, the IC50 entry (in the test with HT-1080 [1]; with HeLa [2]; on Collagenase ColA; in test [3]; against Prothrombin; against Heparanase [4]) was “Not Active” throughout. The IC50 entry (in [5]; against Coagulation factor X; against Serine protease 1) was “Not Active” in each case.

For `CC(=O)OC(=O)c1ccccc1C(=O)c1ccc(F)c([N+](=O)[O-])c1`, the 50% inhibitory concentration (IC50) against Integrin alpha-5/beta-1 [7] was 7 µM; in the test on HT-1080 [8], 2 µM; in the test on HT-1080 [10] it was 43 µM; against Integrin alpha-5/beta-1 [11], 16 µM; in the test on HT-1080 [12] it was 5 µM; against Collagenase ColA it was “Not Active”. Besides, the 50% inhibitory concentration (IC50) entry in test [3] was “Not Active”; against Prothrombin, “Not Active”; against Integrin alpha-5/beta-1 [14], 8 µM; with HT-1080 [15], 10 µM; at Heparanase [4], “Not Active”; in [5] it was “Not Active”. The half-maximal inhibitory concentration (IC50) entry is “Not Active” against Coagulation factor X, 17 µM in the test on HT-1080 [16], 2 µM with HT-1080 [17] and “Not Active” at Serine protease 1. Moreover, the values for the Inhibition in the test with HT-1080 [9] and with HeLa [13] were 89% and 85%, respectively.

On to `CCOc1ccc(C(=O)c2ccccc2C(=O)O)cc1[N+](=O)[O-]`, for which the 50% inhibitory concentration (IC50) result (in the test on HT-1080 [1]; in the test with HeLa [2]; at Collagenase ColA; in test [3]; against Prothrombin; against Heparanase [4]) was “Not Active” in each case. Further, the IC50 entry (in test [5]; against Coagulation factor X; on Serine protease 1) was “Not Active” in each case.

With `O=C(O)CC(Sc1ccc(C(=O)c2ccccc2C(=O)O)cc1[N+](=O)[O-])C(=O)O` (stereo not drawn), the 50% inhibitory concentration (IC50) entry (with HT-1080 [1]; in the test with HeLa [2]; at Collagenase ColA; in test [3]; at Prothrombin; at Heparanase [4]) was “Not Active” each time. For the same molecule, the IC50 result (in [5]; against Coagulation factor X; at Serine protease 1) was “Not Active” in each case.
